From ChEMBL document CHEMBL3875143, “Novel multi-target-directed ligands for Alzheimer's disease: Combining cholinesterase inhibitors and 5-HT6 receptor antagonists. Design, synthesis and biological evaluation” (Eur J Med Chem, 2016)
pIC50, pKi: −log10 of the molar value. Active and inactive are the calls of the source. The rule behind the calls is not given here.

Legend:
[1] = molecular target: Cholinesterase (Equus caballus) (UniProt P81908); assay: Inhibition of equine serum BuChE at 10 uM preincubated for 5 mins followed by butyrylthiocholine iodide substrate addition measured after 5 mins by Ellman's method relative to control
Chain of Cholinesterase (Equus caballus) (P81908 whole entry): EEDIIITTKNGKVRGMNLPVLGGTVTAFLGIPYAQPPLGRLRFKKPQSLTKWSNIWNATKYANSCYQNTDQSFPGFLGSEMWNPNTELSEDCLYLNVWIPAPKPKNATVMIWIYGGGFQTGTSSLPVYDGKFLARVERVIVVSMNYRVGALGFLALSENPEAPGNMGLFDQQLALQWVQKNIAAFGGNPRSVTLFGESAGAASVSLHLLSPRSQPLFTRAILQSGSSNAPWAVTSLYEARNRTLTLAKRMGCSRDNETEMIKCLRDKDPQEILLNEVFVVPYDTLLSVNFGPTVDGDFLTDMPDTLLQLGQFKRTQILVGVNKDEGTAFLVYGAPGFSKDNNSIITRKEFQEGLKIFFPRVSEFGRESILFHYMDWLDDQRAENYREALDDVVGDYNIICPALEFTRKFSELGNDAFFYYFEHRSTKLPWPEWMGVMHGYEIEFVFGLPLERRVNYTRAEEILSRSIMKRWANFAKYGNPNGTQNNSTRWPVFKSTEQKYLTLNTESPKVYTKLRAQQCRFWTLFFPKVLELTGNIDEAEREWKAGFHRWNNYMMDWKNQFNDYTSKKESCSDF

[2] = molecular target: 5-hydroxytryptamine receptor 6 (Homo sapiens, UniProt P50406); assay: biochemical
Chain of 5-hydroxytryptamine receptor 6 (P50406 whole entry): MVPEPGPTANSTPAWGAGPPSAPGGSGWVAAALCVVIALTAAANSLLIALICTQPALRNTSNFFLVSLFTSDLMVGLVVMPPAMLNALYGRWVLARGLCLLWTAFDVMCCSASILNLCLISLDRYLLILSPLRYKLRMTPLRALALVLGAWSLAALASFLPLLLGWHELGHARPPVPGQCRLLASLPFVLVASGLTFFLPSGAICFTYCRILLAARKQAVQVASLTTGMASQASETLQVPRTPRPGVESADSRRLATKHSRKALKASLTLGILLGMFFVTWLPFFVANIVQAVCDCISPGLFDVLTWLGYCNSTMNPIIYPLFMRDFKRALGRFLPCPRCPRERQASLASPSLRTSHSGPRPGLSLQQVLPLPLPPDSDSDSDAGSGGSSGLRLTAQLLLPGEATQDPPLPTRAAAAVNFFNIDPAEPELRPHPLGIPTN
Description: Displacement of [3H]-LSD from human recombinant 5-HT6 receptor expressed in CHOK1 cell membranes measured after 60 mins by scintillation counter

[3] = molecular target: Cholinesterase (Equus caballus, UniProt P81908)
Chain of Cholinesterase (Equus caballus, UniProt P81908) (P81908 whole entry): as the sequence (P81908 whole entry) above
Description: Inhibition of equine serum BuChE preincubated for 5 mins followed by butyrylthiocholine iodide substrate addition measured after 5 mins by Ellman's method

[4] = molecular target: Acetylcholinesterase (Electrophorus electricus, UniProt O42275)
Chain of Acetylcholinesterase (Electrophorus electricus, UniProt O42275) (O42275 whole entry): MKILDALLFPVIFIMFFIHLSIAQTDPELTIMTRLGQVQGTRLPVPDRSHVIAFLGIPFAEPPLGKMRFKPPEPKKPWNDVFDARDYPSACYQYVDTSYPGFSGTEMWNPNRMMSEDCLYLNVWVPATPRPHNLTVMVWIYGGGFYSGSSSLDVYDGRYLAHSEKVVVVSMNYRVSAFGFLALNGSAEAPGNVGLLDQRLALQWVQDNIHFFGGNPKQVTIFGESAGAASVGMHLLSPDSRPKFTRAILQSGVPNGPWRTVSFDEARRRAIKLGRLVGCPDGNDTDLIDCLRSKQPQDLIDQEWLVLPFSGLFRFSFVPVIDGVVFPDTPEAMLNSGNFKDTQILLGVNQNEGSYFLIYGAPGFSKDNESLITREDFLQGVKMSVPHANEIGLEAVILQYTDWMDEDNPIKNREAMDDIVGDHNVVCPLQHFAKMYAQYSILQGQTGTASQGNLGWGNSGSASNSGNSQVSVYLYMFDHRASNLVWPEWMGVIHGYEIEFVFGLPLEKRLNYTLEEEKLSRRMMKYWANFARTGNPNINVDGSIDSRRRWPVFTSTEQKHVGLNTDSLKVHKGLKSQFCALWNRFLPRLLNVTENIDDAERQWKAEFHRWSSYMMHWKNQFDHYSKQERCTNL
Description: Inhibition of electric eel AChE preincubated for 5 mins followed by acetylthiocholine iodide substrate addition measured after 5 mins by Ellman's method

[5] = molecular target: Acetylcholinesterase (Homo sapiens, UniProt P22303); assay: Inhibition of human recombinant AChE preincubated for 5 mins followed by acetylthiocholine iodide substrate addition measured after 5 mins by Ellman's method
Chain of Acetylcholinesterase (Homo sapiens, UniProt P22303) (P22303 whole entry): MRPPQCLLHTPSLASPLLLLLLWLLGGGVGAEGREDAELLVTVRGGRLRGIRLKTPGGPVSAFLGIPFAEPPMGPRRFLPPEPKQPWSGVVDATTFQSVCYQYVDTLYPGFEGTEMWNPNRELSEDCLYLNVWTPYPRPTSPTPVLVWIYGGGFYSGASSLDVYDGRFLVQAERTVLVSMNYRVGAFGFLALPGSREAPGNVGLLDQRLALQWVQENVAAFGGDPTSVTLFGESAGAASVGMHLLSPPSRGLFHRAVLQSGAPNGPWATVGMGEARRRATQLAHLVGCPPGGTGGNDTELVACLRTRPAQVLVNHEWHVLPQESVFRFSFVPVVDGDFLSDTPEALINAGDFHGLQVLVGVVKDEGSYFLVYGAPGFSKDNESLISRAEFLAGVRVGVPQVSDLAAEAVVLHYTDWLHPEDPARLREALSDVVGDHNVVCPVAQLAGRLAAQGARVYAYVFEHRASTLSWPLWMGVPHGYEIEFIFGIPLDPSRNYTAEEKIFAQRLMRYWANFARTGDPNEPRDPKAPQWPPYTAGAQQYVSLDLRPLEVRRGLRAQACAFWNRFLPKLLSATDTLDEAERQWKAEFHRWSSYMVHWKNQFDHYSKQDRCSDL

[6] = Reduction of spontaneous locomotor activity below baseline in Wistar rat at 10 mg/kg, ip in presence of scopolamine by open field assay; assay type: ADME, organism-based; settings: in vivo
[7] = tested on: Rattus norvegicus; assay: Reduction in spontaneous locomotor activity in ip dosed Wistar rat pretreated for 30 mins by open field assay; assay type: functional, organism-based
[8] = molecular target: Acetylcholinesterase (Electrophorus electricus) (UniProt O42275); assay: Non-competitive inhibition of electric eel AChE at 30 to 120 nM using varying levels of acetylthiocholine iodide substrate preincubated for 5 mins followed by substrate addition measured after 5 mins by Line-weaver burk plot method
Chain of Acetylcholinesterase (Electrophorus electricus) (O42275 24-633 limits assumed): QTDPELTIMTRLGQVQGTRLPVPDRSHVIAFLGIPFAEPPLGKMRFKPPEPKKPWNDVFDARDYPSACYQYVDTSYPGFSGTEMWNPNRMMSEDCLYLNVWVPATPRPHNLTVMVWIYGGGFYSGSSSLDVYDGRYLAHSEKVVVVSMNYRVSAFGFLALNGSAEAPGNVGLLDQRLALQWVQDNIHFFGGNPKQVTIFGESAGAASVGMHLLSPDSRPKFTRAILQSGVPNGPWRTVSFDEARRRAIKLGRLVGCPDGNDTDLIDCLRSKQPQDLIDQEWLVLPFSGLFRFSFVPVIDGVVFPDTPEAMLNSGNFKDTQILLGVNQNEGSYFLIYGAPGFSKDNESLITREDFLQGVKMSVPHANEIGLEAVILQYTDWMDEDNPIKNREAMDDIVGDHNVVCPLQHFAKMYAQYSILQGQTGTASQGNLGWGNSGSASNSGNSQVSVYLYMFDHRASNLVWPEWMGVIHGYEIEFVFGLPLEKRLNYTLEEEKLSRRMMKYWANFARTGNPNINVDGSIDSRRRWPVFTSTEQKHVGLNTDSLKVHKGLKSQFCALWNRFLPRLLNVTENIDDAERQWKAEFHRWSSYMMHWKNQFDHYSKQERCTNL

[9] = molecular target: Cholinesterase (Homo sapiens, UniProt P06276); assay: Inhibition of human recombinant BuChE preincubated for 5 mins followed by butyrylthiocholine iodide substrate addition measured after 5 mins by Ellman's method
Chain of Cholinesterase (Homo sapiens, UniProt P06276) (P06276 whole entry): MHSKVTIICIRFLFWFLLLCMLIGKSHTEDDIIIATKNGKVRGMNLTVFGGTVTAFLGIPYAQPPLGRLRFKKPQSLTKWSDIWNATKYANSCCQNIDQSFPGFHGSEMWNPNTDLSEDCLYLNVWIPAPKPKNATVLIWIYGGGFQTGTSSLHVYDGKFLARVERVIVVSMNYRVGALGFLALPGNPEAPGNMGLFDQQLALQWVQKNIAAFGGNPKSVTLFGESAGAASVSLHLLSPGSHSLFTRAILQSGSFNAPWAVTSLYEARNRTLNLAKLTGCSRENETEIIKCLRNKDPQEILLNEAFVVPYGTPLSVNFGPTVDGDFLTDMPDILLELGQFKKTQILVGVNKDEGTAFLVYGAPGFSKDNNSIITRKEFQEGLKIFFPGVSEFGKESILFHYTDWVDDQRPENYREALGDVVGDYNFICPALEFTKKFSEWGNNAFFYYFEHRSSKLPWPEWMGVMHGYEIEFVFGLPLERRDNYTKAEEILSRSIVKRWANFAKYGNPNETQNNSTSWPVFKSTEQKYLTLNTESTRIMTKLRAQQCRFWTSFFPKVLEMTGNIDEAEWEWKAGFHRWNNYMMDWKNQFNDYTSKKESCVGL

[10] = molecular target: Cholinesterase (Equus caballus) (UniProt P81908); settings: 9 to 30 nM
[11] = tested on: Rattus norvegicus; assay: Reversal of scopolamine-induced hyperlocomotion in ip dosed Wistar rat; assay type: functional, organism-based
[12] = tested on: Rattus norvegicus; assay: Reduction in spontaneous locomotor activity in Wistar rat at 10 mg/kg, ip pretreated for 30 to 180 mins by open field assay; assay type: functional, organism-based
[13] = PAMPA, 2 h

Row | Structure (SMILES) | pKi [2] | pIC50 [3] | pIC50 [4] | other results
1 | O=S(=O)(c1ccccc1)n1ccc2c(N3CCNCC3)cccc21 | – | – | – | inhibition [1]: 45.8%
2 | O=S(=O)(c1ccccc1)n1ccc2c(N3CCN(CCNC4CCN(Cc5ccccc5)C4)CC3)cccc21 (stereo unspecified) | 7.89 | 5.47 | – | –
3 | CN(CCCN1CCN(c2cccc3c2ccn3S(=O)(=O)c2ccccc2)CC1)Cc1ccccc1 | 8.00 | – | – | inhibition [1]: 27.8%
4 | O=S(=O)(c1ccccc1)n1ccc2c(N3CCN(CCCNC4CCN(Cc5ccccc5)CC4)CC3)cccc21 | 8.70 | 5.49 | – | –
5 | O=S(=O)(c1ccccc1)n1ccc2c(N3CCN(CCCNCc4ccccc4)CC3)cccc21 | 7.80 | 6.22 | – | –
6 | O=S(=O)(c1ccccc1)n1ccc2c(N3CCN(CCCNc4c5c(nc6ccccc46)CCCC5)CC3)cccc21 | 8.22 | 7.85 | 7.92 | pIC50 [5]: 8.01
7 | O=S(=O)(c1ccccc1)n1ccc2c(N3CCN(CCCCNC4CCN(Cc5ccccc5)CC4)CC3)cccc21 | 7.80 | 5.66 | – | –
8 | O=S(=O)(c1ccccc1)n1ccc2c(N3CCN(CCCCCCCNc4c5c(nc6ccccc46)CCCC5)CC3)cccc21 | 7.44 | 8.00 | 7.82 | pIC50 [5]: 8.21
9 | O=S(=O)(c1ccccc1)n1ccc2c(N3CCN(CCCCNCc4ccccc4)CC3)cccc21 | 8.10 | 5.66 | – | –
10 | O=S(=O)(c1ccccc1)n1ccc2c(N3CCN(CCCCCCCCNc4c5c(nc6ccccc46)CCCC5)CC3)cccc21 | 7.44 | 7.91 | 8.15 | pIC50 [5]: 8.89
11 | O=S(=O)(c1ccccc1)n1ccc2c(N3CCN(CCCCCCNc4c5c(nc6ccccc46)CCCC5)CC3)cccc21 | 8.70 | 8.09 | 7.34 | Activity [6]: Non-Toxic; Activity [7]: Dose-dependent effect; inhibition [8]: Active; pIC50 [9]: 7.53; inhibition [10]: Active; Activity [11]: Dose-dependent effect; Activity [12]: Active; pIC50 [5]: 7.89
12 | O=S(=O)(c1ccccc1)n1ccc2c(N3CCN(CCNC4CCN(Cc5ccccc5)CC4)CC3)cccc21 | 7.41 | 4.98 | – | –
13 | CC(C)NCC(O)COc1cccc2ccccc12 (stereo unspecified) [PROPRANOLOL] | – | – | – | logPeff [13]: -3.7
14 | CN(CCN1CCN(c2cccc3c2ccn3S(=O)(=O)c2ccccc2)CC1)Cc1ccccc1 | 7.82 | 5.71 | – | –
15 | O=S(=O)(c1ccccc1)n1ccc2c(N3CCN(CCCCCNc4c5c(nc6ccccc46)CCCC5)CC3)cccc21 | 8.10 | 7.67 | 7.24 | pIC50 [5]: 7.74
16 | CN(CCCCN1CCN(c2cccc3c2ccn3S(=O)(=O)c2ccccc2)CC1)Cc1ccccc1 | 8.40 | 5.21 | – | –
17 | CC(=O)[C@H]1CC[C@H]2[C@@H]3CCC4=CC(=O)CC[C@]4(C)[C@H]3CC[C@]12C [PROGESTERONE] | – | – | – | logPeff [13]: -3.8
18 | O=S(=O)(c1ccccc1)n1ccc2c(N3CCN(CCCCCCNCc4ccccc4)CC3)cccc21 | 8.70 | 5.62 | – | –
19 | O=S(=O)(c1ccccc1)n1ccc2c(N3CCN(CCNCc4ccccc4)CC3)cccc21 | 7.92 | 5.88 | – | –
20 | CN(CCCCCN1CCN(c2cccc3c2ccn3S(=O)(=O)c2ccccc2)CC1)Cc1ccccc1 | 8.00 | 5.51 | – | –
21 | O=S(=O)(c1ccccc1)n1ccc2c(N3CCN(CCCCCNCc4ccccc4)CC3)cccc21 | 8.10 | 5.78 | 5.36 | –
22 | O=S(=O)(c1ccccc1)n1ccc2c(N3CCN(CCNc4c5c(nc6ccccc46)CCCC5)CC3)cccc21 | 8.00 | 7.77 | 8.12 | pIC50 [5]: 7.36
